# Laboratory results from ChEMBL document CHEMBL1201862, “PubChem BioAssay data set” (2004).
# Calls of active or inactive are those of the source.
# How the values were obtained:
# [1] = P. falciparum Dd2 growth inhibitors, dose response, SYBR Green, cherry-picked samples (AID 1159567); type: functional, cell-based
# [2] = Dd2 malaria parasite growth inhibition potency – SYBR Green, dry powder samples, dose response (AID 1159566); type: functional, cell-based;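 also: potency for growth inhibition with lower SYBR green DNA signal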
# [3] = growth inhibition of PfATP4-mutant resistant parasites – NITD609-resistant line, SYBR Green, dry powder, dose response (AID 1159571); type: functional, cell-based;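 also: parasites synchronized at ring stage by sorbitol before testing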
# [4] = growth inhibition of yeast DHODH-expressing 3D7 parasites – SYBR Green, dry powder samples, dose response (AID 1159570); type: functional, cell-based;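 also: parasite growth measured after 72 hours of compound exposure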
# [5] = microbe, parasite or virus in culture; type: functional; settings: Mycobacterium tuberculosis
# [6] = molecular target: Voltage-dependent T-type calcium channel subunit alpha-1H (Homo sapiens, UniProt O95180); type: functional;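 also: channel activity triggered by adding a high calcium stimulation buffer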
# [7] = NIH3T3 cell viability loss – ATP luminescence, mouse fibroblasts, counter-screen, dose response (AID 2010); type: functional, cell-based;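 also: cells exposed to compound for about 90 hours before reading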
# [8] = Luminescence Cell-Based Dose Retest to Confirm Inhibitors of Cancer Stem Cells. [Related pubchem assays (depositor defined):AID2717, AID2721]; type: functional; settings: Homo sapiens
# [9] = Trypanosoma cruzi growth suppression in host cells – NIH3T3 host cells, beta-gal luminescence, confirmation (AID 2044); type: functional, cell-based;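 also: intracellular parasites grown in NIH/3T3 mouse fibroblasts as host cells; luminescent beta-galactosidase reporter signal from transgenic T. cruzi replicating inside host cells; inhibitors lower the luminescence signal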
# [10] = molecular target: T1, Histone-lysine N-methyltransferase NSD2 (Homo sapiens, UniProt O96028); type: biochemical
# T1 sequence (O96028 whole entry): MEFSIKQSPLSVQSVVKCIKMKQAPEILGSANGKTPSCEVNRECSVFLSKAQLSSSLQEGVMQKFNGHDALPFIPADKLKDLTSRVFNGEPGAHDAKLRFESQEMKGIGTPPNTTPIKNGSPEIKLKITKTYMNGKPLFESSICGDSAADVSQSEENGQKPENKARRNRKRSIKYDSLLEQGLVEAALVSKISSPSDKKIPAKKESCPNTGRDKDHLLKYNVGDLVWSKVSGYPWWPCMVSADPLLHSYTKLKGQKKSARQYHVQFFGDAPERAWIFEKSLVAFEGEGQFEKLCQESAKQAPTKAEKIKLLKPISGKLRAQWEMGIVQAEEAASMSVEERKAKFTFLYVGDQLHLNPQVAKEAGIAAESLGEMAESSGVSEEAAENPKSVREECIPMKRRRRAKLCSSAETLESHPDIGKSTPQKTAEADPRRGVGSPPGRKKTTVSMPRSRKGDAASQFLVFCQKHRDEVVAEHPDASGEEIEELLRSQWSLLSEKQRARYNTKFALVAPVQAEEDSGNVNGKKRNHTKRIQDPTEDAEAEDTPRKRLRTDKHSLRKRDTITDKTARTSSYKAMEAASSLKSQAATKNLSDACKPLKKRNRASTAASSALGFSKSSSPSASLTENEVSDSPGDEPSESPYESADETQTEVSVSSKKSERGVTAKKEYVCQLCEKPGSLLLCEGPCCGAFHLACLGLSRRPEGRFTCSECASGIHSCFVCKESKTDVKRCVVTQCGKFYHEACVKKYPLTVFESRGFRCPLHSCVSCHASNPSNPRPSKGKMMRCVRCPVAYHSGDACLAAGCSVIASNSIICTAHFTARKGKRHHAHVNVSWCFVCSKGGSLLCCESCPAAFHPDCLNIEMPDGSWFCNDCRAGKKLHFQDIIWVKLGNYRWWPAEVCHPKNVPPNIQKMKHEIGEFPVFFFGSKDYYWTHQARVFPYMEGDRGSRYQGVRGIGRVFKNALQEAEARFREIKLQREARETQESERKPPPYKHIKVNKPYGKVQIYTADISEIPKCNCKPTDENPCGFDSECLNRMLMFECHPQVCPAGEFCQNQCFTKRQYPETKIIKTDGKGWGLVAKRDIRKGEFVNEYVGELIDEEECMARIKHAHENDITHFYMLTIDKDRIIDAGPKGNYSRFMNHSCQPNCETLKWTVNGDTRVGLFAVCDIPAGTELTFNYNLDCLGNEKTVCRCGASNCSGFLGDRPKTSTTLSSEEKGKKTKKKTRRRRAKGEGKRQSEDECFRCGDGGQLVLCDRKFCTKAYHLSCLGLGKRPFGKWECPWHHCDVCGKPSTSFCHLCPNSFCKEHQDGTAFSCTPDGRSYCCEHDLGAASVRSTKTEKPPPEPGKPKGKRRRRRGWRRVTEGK
# [11] = molecular target: T2, Alkaline phosphatase, tissue-nonspecific isozyme (Homo sapiens, UniProt P05186); assay: potency against alkaline phosphatase TNAP – biochemical, luminescent, dose response, SAR follow-up (AID 1056)
# T2 sequence (P05186 whole entry): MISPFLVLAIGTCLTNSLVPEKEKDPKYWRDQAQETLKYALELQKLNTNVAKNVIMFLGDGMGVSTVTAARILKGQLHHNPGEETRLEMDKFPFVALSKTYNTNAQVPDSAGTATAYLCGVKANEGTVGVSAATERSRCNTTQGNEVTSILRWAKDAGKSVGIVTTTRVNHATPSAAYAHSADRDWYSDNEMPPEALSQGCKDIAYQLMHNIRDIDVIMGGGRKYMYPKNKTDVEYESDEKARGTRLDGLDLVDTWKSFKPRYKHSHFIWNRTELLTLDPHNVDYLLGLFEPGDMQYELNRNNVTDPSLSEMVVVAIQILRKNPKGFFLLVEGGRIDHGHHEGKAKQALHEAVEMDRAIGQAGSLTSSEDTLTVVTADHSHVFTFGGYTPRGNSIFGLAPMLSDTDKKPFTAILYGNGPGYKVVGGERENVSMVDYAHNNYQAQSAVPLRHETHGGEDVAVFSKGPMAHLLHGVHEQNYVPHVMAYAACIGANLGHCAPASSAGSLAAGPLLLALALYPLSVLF
# cells [12] = type: functional, cell-based
# cells [13] = type: functional, cell-based; remark: listed apart in the source
# [14] = A Cell Based Secondary Assay To Explore Cytotoxicity of Compounds that Sensitize Mycobacterium Tuberculosis to Beta-Lactam Antibiotics.; type: functional
# Streptococcus = assay: GAS UMAA2166 growth inhibition – luminescence, BacTiterGlo, counter-screen for streptokinase expression inhibitor project, dose response (AID 1915); type: functional, organism-based;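 also: potency for reduction of bacterial viability or growth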
# Streptokinase A = molecular target: T3, Streptokinase A (Streptococcus pyogenes serotype M1, UniProt P10520); assay: viability-normalized secreted streptokinase activity reduction – plasminogen activation absorbance, OD405, dose response (AID 1914); type: functional, Streptococcus pyogenes M1 GAS;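 also: secreted streptokinase activity via plasminogen activation per viability signal from cell pellet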
# T3 sequence (P10520 whole entry): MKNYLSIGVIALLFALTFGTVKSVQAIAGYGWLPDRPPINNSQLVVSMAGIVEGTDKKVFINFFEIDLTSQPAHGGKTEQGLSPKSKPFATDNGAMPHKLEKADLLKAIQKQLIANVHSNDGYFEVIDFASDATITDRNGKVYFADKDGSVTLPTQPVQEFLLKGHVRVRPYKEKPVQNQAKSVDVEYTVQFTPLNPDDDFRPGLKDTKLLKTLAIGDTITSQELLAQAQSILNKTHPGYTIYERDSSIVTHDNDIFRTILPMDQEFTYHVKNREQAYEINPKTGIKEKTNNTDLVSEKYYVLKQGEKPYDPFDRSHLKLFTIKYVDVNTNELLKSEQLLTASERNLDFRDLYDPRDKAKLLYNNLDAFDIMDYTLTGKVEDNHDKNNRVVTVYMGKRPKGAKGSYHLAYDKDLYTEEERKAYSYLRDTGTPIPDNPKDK
# H9c2 = assay: cells; type: functional, cell-based; settings: Rattus norvegicus, H9c2, Myocardium;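 also: confirmatory concentration-response retest of ultra-high-throughput screening hits for modulation of myocardial damage; cell death induced by hydrogen peroxide oxidative stress; compound pretreatment for 60 min then peroxide exposure for 2 h; potency is for protecting the cells against peroxide damage rather than for killing them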
# Cytochrome P450 2D6 = Cytochrome P450 2D6 (Homo sapiens, UniProt P10635);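 also: CYP2D6 member of a cytochrome P450 panel assay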
# Cytochrome P450 2C19 = Cytochrome P450 2C19 (Homo sapiens, UniProt P33261); assay: Cytochrome panel assay with activity outcomes. Panel member name: p450-cyp2c19 Compounds with AC50 equal or less than 10 uM are considered active; type: functional; settings: read-out: AC50
# Cytochrome P450 1A2 = molecular target: T4, Cytochrome P450 1A2 (Homo sapiens, UniProt P05177);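 also: PubChem cytochrome P450 panel assay, CYP1A2 panel member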
# T4 sequence (P05177 whole entry): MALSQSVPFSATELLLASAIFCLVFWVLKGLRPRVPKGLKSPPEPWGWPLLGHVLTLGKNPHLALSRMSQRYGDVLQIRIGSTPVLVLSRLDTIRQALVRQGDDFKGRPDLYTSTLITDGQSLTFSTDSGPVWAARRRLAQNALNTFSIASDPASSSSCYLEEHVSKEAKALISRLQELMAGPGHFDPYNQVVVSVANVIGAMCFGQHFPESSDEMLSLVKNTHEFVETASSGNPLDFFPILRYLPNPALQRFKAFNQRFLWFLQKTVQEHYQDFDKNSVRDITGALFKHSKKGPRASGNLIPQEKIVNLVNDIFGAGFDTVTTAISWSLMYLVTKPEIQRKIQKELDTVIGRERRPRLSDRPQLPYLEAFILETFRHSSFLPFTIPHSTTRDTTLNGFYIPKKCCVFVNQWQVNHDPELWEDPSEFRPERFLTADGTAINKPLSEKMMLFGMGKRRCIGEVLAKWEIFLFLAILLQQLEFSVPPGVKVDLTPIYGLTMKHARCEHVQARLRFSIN
# Nonstructural protein 1 = Nonstructural protein 1 (Influenza A virus, UniProt Q194T2); type: functional, Influenza A virus (A/California/07/2009(H1N1))
# [15] = A549 cell cytotoxicity, dose response, cytotoxicity control, plate reader, cherry-pick, antagonist series (AID 743412); type: functional, cell-based
# [16] = viability of uninfected HEp-2 cells – cell-based, HTS, cytotoxicity control for RSV inhibitor project, dose response (AID 2410); type: functional; settings: human respiratory syncytial virus
# Protein skinhead-1 = molecular target: T5, Protein skinhead-1 (Caenorhabditis elegans, UniProt P34707); type: functional
# T5 sequence (P34707 whole entry): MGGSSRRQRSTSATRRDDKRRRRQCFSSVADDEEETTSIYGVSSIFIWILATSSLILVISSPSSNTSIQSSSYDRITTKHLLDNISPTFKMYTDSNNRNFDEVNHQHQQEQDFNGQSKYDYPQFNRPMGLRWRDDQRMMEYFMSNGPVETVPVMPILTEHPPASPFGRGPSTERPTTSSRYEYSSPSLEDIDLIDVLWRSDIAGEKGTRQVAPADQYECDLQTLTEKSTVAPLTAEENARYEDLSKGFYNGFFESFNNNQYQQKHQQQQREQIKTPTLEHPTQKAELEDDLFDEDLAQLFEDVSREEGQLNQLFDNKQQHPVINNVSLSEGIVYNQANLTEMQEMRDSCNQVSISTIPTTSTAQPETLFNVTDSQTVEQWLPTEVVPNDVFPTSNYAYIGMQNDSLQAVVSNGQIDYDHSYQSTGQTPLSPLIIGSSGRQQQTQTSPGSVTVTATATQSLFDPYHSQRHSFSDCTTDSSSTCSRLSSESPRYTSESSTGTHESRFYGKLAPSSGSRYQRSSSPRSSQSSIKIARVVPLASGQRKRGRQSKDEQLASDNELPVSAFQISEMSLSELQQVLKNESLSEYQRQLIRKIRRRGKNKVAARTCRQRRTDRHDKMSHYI
# INS1 = assay: INS-1E survival protection against cytokine death – cell-based, luminescence, retest, dose response (AID 449756); type: functional; settings: Rattus norvegicus;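 also: cell death triggered by IL-1 beta plus TNF-alpha plus IFN-gamma mixture; protective hits raise ATP signal compared with cytokine alone wells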
# Chain of Voltage-dependent T-type calcium channel subunit alpha-1H (O95180 whole entry): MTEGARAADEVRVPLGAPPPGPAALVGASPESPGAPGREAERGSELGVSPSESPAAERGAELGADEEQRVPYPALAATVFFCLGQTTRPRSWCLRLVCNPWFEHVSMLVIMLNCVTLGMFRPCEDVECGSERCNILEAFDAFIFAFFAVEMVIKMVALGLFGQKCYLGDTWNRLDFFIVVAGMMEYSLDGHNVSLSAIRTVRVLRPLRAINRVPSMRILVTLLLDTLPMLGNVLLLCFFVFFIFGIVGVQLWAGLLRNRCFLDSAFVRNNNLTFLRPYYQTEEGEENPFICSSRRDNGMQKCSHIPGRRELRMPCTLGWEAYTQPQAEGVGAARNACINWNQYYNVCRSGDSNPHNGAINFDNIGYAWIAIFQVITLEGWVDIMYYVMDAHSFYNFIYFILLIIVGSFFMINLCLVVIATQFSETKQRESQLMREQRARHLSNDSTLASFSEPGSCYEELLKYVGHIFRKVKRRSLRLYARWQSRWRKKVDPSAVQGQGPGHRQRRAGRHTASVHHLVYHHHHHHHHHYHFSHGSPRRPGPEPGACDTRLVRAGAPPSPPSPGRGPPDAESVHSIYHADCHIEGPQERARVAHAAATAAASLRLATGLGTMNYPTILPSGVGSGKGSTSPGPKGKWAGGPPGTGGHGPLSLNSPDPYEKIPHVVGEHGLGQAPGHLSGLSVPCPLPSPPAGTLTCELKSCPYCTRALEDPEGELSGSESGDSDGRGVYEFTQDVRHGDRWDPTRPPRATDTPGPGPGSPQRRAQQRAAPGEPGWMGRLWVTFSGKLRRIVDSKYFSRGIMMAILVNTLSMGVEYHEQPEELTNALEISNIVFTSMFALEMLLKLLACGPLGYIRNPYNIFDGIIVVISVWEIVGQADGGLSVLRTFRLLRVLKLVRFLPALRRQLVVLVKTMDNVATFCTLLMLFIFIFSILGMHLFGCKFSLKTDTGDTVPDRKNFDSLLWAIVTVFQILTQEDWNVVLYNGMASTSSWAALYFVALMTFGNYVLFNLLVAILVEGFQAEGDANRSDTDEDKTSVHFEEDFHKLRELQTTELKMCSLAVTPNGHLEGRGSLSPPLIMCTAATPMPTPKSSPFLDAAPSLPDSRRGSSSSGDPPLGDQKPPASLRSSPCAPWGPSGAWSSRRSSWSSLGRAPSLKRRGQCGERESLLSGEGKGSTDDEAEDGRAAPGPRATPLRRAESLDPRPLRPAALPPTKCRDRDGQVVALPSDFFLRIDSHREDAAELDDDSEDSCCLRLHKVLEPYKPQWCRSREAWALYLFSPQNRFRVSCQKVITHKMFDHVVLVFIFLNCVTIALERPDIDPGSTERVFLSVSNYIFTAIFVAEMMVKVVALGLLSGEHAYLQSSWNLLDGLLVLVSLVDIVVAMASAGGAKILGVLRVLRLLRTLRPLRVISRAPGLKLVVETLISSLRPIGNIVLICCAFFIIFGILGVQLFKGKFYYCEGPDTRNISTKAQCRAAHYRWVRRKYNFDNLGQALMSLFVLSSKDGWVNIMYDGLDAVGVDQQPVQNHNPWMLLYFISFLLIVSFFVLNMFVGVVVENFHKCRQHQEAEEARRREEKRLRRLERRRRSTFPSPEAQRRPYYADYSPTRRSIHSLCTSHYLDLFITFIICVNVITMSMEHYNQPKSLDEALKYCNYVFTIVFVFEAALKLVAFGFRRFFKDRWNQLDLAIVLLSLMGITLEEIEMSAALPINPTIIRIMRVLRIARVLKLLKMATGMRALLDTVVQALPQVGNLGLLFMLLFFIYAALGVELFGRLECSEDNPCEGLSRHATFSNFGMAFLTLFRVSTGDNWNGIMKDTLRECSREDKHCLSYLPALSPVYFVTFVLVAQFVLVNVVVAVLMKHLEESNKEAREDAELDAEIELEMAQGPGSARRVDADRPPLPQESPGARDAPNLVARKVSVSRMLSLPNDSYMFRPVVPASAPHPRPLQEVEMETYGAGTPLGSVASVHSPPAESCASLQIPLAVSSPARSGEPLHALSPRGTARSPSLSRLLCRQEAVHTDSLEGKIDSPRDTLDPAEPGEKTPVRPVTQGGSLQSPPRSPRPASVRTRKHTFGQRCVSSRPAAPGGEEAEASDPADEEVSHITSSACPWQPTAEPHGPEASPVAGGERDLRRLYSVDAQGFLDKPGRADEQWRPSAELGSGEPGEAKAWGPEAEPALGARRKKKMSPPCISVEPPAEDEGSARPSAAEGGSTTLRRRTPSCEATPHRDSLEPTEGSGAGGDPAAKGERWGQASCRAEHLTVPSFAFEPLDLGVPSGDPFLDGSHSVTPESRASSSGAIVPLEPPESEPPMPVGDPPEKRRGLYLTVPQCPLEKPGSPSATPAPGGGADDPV
# Chain of Nonstructural protein 1 (Q194T2 whole entry): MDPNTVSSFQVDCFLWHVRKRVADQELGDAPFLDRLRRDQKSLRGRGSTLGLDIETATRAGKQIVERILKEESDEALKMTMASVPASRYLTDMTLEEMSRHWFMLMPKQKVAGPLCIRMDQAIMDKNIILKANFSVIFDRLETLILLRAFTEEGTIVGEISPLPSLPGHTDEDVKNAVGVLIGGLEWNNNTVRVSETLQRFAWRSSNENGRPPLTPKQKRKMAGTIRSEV
# Chain of Cytochrome P450 2C19 (P33261 whole entry): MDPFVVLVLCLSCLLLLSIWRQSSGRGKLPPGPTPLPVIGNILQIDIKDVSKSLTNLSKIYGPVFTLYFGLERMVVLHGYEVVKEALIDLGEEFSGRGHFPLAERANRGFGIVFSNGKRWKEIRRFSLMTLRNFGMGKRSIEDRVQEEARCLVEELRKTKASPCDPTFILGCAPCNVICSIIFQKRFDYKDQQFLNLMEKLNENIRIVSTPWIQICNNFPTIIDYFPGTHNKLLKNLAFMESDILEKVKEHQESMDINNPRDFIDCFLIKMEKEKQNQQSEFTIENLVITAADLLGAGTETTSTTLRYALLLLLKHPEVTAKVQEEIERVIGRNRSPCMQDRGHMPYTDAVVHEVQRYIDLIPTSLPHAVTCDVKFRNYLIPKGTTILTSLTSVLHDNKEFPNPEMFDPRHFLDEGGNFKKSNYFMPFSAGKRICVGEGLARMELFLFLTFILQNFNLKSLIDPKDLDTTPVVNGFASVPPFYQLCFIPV
# Chain of Cytochrome P450 2D6 (P10635 whole entry): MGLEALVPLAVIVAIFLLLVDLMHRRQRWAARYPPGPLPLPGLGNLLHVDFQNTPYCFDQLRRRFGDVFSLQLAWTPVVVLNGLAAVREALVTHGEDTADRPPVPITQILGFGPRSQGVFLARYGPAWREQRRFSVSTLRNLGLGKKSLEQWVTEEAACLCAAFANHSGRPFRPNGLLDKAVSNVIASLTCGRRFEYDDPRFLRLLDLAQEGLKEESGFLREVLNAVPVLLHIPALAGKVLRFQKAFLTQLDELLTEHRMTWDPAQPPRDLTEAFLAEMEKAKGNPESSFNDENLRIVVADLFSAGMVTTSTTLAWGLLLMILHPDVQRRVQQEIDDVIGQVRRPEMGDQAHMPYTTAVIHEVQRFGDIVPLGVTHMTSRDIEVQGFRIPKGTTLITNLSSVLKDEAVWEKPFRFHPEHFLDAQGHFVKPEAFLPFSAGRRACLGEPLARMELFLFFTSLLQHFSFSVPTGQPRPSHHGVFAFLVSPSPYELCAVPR
smiles,measurement,setting,value
CO[C@@H]1CN(C)C(=O)c2ccc(NC(=O)c3nc4ccccc4s3)cc2OC[C@H](C)N(Cc2ccncc2)C[C@@H]1C,AC50,[1],0.985 µM (active)
same,AC50,[2],0.792 µM (active)
same,AC50,[3],0.725 µM (active)
same,AC50,[4],1.86 µM (active)
COc1ccc2c3c(n(C)c2c1)[C@@H](CO)N(C(=O)C1CC1)CC31CCN(C(=O)Nc2cccc(F)c2)CC1,AC50,[1],0.506 µM (active)
same,AC50,[2],0.343 µM (active)
same,AC50,[3],0.441 µM (active)
same,AC50,[4],0.171 µM (active)
Cc1ccccc1N1CCN(C(=O)c2ccc(Oc3ccc(C(F)(F)F)cn3)cc2)CC1,CC50,[5],> 40 µM (active)
same,EC50,[6],5.89 µM (active)
same,EC50,[7],> 60 µM (not active)
same,AC50,[8],3.43 µM (active)
same,EC50,[9],2.32 µM (active)
Cc1ccc(S(=O)(=O)NC(=O)c2ccc(-c3ccc(-c4ccccc4)cc3)o2)c(C)c1,EC50,[6],3.33 µM (active)
Nc1c(C(=O)OCC2CCCO2)c2nc3ccccc3nc2n1C1CCCCC1 (stereo not given),AC50,[10],10 µM (active)
O=S(=O)(c1cccc(S(=O)(=O)N2CCC(Cc3ccccc3)CC2)c1)N1CCOCC1,EC50,[6],8.09 µM (active)
Cc1cccc(N2CCN(CC(=O)Nc3nccs3)CC2)c1C,EC50,[6],6.29 µM (active)
O=C(Cn1cnnc1)c1ccc(O)c(O)c1,IC50,[11],> 100 µM (inactive)
COc1cc(C(=O)Nc2sc(C)c(C)c2C(=O)O)cc(OC)c1OC,EC50,cells [12],> 350 µM (not active)
same,EC50,cells [13],> 350 µM (not active)
FC(F)Oc1ccccc1C1CC(c2ccc(Br)s2)Nc2ncnn21 (stereo not given),CC50,[14],> 40 µM (active)
same,EC50,Streptococcus,> 150 µM (not active)
same,EC50,Streptokinase A,> 150 µM (not active)
c1ccc(-c2oc3ncnc(NCCN4CCOCC4)c3c2-c2ccccc2)cc1,CC50,[14],> 40 µM (active)
same,IC50,H9c2,> 79 µM (inactive)
Nc1nc(SCC(=O)N2CCCC2)nc(O)c1-c1ccccc1,EC50,cells [12],> 350 µM (not active)
same,EC50,cells [13],> 350 µM (not active)
COC(=O)[C@@]1(Cc2ccc(F)cc2)[C@H]2c3cc(C(=O)N(C)C)n(Cc4ccc(OC)c(OC)c4)c3C[C@H]2CN1C(=O)c1ccccc1,AC50,Cytochrome P450 2D6,39.8 µM (inconclusive)
same,AC50,Cytochrome P450 2C19,39.8 µM (inconclusive)
same,CC50,[14],> 40 µM (active)
same,AC50,Cytochrome P450 1A2,31.6 µM (inconclusive)
O=C(CN1CCCC1)N/N=C/c1c(O)ccc2ccccc12,IC50,Nonstructural protein 1,9.17 µM (active)
same,EC50,cells [12],> 350 µM (not active)
same,EC50,cells [13],8.38 µM (active)
CC1(C)CN(c2cccc(C#N)c2)C1=O,AC50,[10],10.7 µM (active)
CCOC(=O)c1c(C)nc2sc(C(=O)Nc3ccccc3)c(N)c2c1-c1ccc(OC)cc1,CC50,[14],3.99 µM (active)
O=C(Nc1ccc(N2CCOCC2)c(S(=O)(=O)Nc2ccccc2Cl)c1)c1ccc(F)cc1,AC50,[15],> 52 µM (inactive)
CC1Cc2ccccc2N1C(=O)CSc1nc2ccccc2o1 (stereo not given),EC50,[6],9.56 µM (active)
same,CC50,[16],26.9 µM (active)
same,IC50,Protein skinhead-1,> 100 µM (inactive)
same,AC50,INS1,> 260 µM (inactive)
Cc1ccc(S(=O)(=O)N(C)C[C@H]2OCc3ccccc3-c3c(n(C)c4ccccc34)C(=O)N([C@H](C)CO)C[C@@H]2C)cc1,AC50,[1],2.36 µM (active)
same,AC50,[2],1.47 µM (active)
same,AC50,[3],1.08 µM (active)
same,AC50,[4],1.27 µM (active)
